From PubChem BioAssay (NCI)
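Step 1: Grow cells in 96-well plates. Step 2: Expose to compound for 48 hours at 5 concentrations. Step 3: Interpolate endpoints linearly; if unreached, use highest concentration. TGI denotes the concentration required for complete inhibition of growth.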

Columns and labels:
Test in all cases: NCI anticancer screen, dose series, 48 h
[1] = system: NCI-H460 lung
[2] = system: ACHN renal
[3] = system: SK-MEL-5 melanoma
[4] = system: PC-3 prostate
[5] = system: MDA-MB-231 breast
[6] = system: HT29 colon
[7] = system: IGROV1 ovarian
[8] = system: CAKI-1 renal
[9] = system: UO-31 renal
[10] = system: DU-145 prostate
[11] = system: A549 NSCLC
[12] = system: KM12 colon
[13] = system: A498 renal
[14] = system: OVCAR-4 ovarian
[15] = system: SK-MEL-2 melanoma
[16] = system: LOX IMVI melanoma
[17] = system: T-47D breast
[18] = system: HOP-92 NSCLC
[19] = system: UACC-257 melanoma
[20] = system: U251 CNS
[21] = system: HS 578T breast
[22] = system: EKVX NSCLC
[23] = system: SW-620 colon
[24] = system: HCC-2998 colon
[25] = system: HL-60(TB) leukemia
[26] = system: MALME-3M melanoma
[27] = system: RXF 393 renal
[28] = system: SNB-75 CNS
[29] = system: 786-0 renal
[30] = system: COLO 205 colon
[31] = system: OVCAR-5 ovarian
[32] = system: SF-539 CNS
[33] = system: SK-MEL-28 melanoma
[34] = system: NCI/ADR-RES ovarian
[35] = system: SK-OV-3 ovarian
[36] = system: HCT-15 colon
[37] = system: NCI-H522 lung
[38] = system: OVCAR-8 ovarian
[39] = system: TK-10 renal
[40] = system: MCF7 breast
[41] = system: MDA-MB-435
[42] = system: NCI-H226 lung
[43] = system: MDA-N
[44] = system: UACC-62 melanoma
[45] = system: HOP-62 NSCLC
[46] = system: BT-549 breast
[47] = system: SR leukemia
[48] = system: K-562 leukemia
[49] = system: HCT-116 colon
[50] = system: SF-295 CNS
[51] = system: NCI-H23 lung
[52] = system: M14 melanoma
[53] = system: RPMI-8226 leukemia
[54] = system: SF-268 CNS
[55] = system: MOLT-4 leukemia
[56] = system: SNB-19 CNS
[57] = system: OVCAR-3 ovarian
[58] = system: SN12C renal
[59] = system: CCRF-CEM leukemia

O=C(Oc1cccc2cccnc12)c1cc2cc(CCl)ccc2oc1=O
TGI [1]: 40.9 µM
TGI [2]: > 100 µM
TGI [3]: > 100 µM
TGI [4]: 31.3 µM
TGI [5]: 89.4 µM
TGI [6]: 33 µM
TGI [7]: > 100 µM
TGI [8]: 85.5 µM
TGI [9]: 72.2 µM
TGI [10]: > 100 µM
TGI [11]: > 100 µM
TGI [12]: > 100 µM
TGI [13]: > 100 µM
TGI [14]: > 100 µM
TGI [15]: 79.8 µM
TGI [16]: > 100 µM
TGI [17]: 54.5 µM
TGI [18]: > 100 µM
TGI [19]: > 100 µM
TGI [20]: 88.4 µM
TGI [21]: > 100 µM
TGI [22]: 6.38 µM
TGI [23]: > 100 µM
TGI [24]: 50.6 µM
TGI [25]: 77.4 µM
TGI [26]: 39.7 µM
TGI [27]: 49.6 µM
TGI [28]: > 100 µM
TGI [29]: 46.7 µM
TGI [30]: 39.9 µM
TGI [31]: > 100 µM
TGI [32]: > 100 µM
TGI [33]: > 100 µM
TGI [34]: > 100 µM
TGI [35]: > 100 µM
TGI [36]: 24.2 µM
TGI [37]: 8.87 µM
TGI [38]: > 100 µM
TGI [39]: > 100 µM
TGI [40]: 11.4 µM
TGI [41]: > 100 µM
TGI [42]: > 100 µM
TGI [43]: > 100 µM
TGI [44]: 36.8 µM
TGI [45]: > 100 µM
TGI [46]: > 100 µM
TGI [47]: > 100 µM
TGI [48]: > 100 µM
TGI [49]: 13.8 µM
TGI [50]: > 100 µM
TGI [51]: 42.8 µM
TGI [52]: 88.4 µM
TGI [53]: > 100 µM
TGI [54]: 52.7 µM
TGI [55]: > 100 µM
TGI [56]: > 100 µM
TGI [57]: > 100 µM
TGI [58]: 54.4 µM

N#CCCN(CCC#N)CCN(CCN(CCC#N)CCC#N)CCN(CCC#N)CCC#N
TGI [1]: > 100 µM
TGI [2]: > 100 µM
TGI [3]: > 100 µM
TGI [4]: > 100 µM
TGI [5]: > 100 µM
TGI [6]: > 100 µM
TGI [7]: > 100 µM
TGI [8]: > 100 µM
TGI [9]: > 100 µM
TGI [10]: > 100 µM
TGI [11]: > 100 µM
TGI [13]: > 100 µM
TGI [14]: > 100 µM
TGI [15]: > 100 µM
TGI [16]: > 100 µM
TGI [17]: > 100 µM
TGI [18]: > 100 µM
TGI [19]: > 100 µM
TGI [20]: > 100 µM
TGI [21]: > 100 µM
TGI [22]: > 100 µM
TGI [23]: > 100 µM
TGI [24]: > 100 µM
TGI [25]: > 100 µM
TGI [26]: > 100 µM
TGI [27]: > 100 µM
TGI [28]: > 100 µM
TGI [29]: > 100 µM
TGI [30]: > 100 µM
TGI [31]: > 100 µM
TGI [32]: > 100 µM
TGI [33]: > 100 µM
TGI [34]: > 100 µM
TGI [35]: > 100 µM
TGI [36]: > 100 µM
TGI [37]: > 100 µM
TGI [38]: > 100 µM
TGI [39]: > 100 µM
TGI [40]: > 100 µM
TGI [41]: > 100 µM
TGI [42]: > 100 µM
TGI [43]: > 100 µM
TGI [45]: > 100 µM
TGI [46]: > 100 µM
TGI [47]: > 100 µM
TGI [48]: > 100 µM
TGI [49]: > 100 µM
TGI [50]: > 100 µM
TGI [51]: > 100 µM
TGI [52]: > 100 µM
TGI [53]: > 100 µM
TGI [54]: > 100 µM
TGI [55]: > 100 µM
TGI [56]: > 100 µM
TGI [57]: > 100 µM
TGI [58]: > 100 µM

Cc1nnc(N)nc1C/C=C/C(Sc1ccc(Cl)cc1)c1ccccc1 (stereo unspecified)
TGI [1]: 17.3 µM
TGI [2]: 18.2 µM
TGI [3]: > 100 µM
TGI [4]: 14.6 µM
TGI [5]: > 33.1 µM
TGI [6]: 25.6 µM
TGI [7]: 5.37 µM
TGI [8]: > 39.5 µM
TGI [9]: 12.4 µM
TGI [10]: > 45.4 µM
TGI [11]: > 64.7 µM
TGI [12]: 15.7 µM
TGI [13]: 23.9 µM
TGI [14]: 19.6 µM
TGI [15]: 21 µM
TGI [16]: 7.7 µM
TGI [17]: > 48.8 µM
TGI [18]: 23.7 µM
TGI [19]: 17 µM
TGI [20]: 26.9 µM
TGI [21]: 24.6 µM
TGI [22]: 16.1 µM
TGI [23]: > 39.7 µM
TGI [24]: 23.4 µM
TGI [25]: 6.13 µM
TGI [26]: 14.6 µM
TGI [27]: 16.2 µM
TGI [28]: 16.5 µM
TGI [29]: 11.4 µM
TGI [30]: > 41.9 µM
TGI [31]: 23 µM
TGI [33]: > 38.1 µM
TGI [34]: > 34.2 µM
TGI [35]: 24.4 µM
TGI [36]: 15.9 µM
TGI [37]: 3.69 µM
TGI [38]: 34.8 µM
TGI [39]: 21.9 µM
TGI [40]: > 34.7 µM
TGI [41]: 14.9 µM
TGI [42]: 4.64 µM
TGI [43]: > 95.9 µM
TGI [44]: 10.1 µM
TGI [45]: 19.6 µM
TGI [46]: 27.7 µM
TGI [47]: > 100 µM
TGI [48]: > 100 µM
TGI [49]: > 27.8 µM
TGI [50]: 10.9 µM
TGI [51]: 22.2 µM
TGI [52]: 20.7 µM
TGI [53]: > 42.9 µM
TGI [54]: 21.6 µM
TGI [55]: > 32 µM
TGI [56]: 22.7 µM
TGI [59]: 3.23 µM
TGI [58]: > 48.1 µM
